Reference: publication PMC6630832, “3-Vinylazetidin-2-Ones: Synthesis, Antiproliferative and Tubulin Destabilizing Activity in MCF-7 and MDA-MB-231 Breast Cancer Cells” (Pharmaceuticals, 2019)
“And” between values parts separate entries of the source, which are not always exact repeats. Identical values can stand only once. Like-named read-outs stand apart in the source and are kept apart here.

Tests used:
MCF-7 cells [1] = experiment: Lactate dehydrogenase (LDH) assay for cytotoxicity; format: cell-based; conditions: Homo sapiens, MCF7, 72 h, read-out: cell death (LDH assay)
Experimental: Cytotoxicity was determined using the CytoTox 96 non-radioactive cytotoxicity assay (Promega Corporation; 2800 Woods Hollow Road, Madison, WI, USA) following the manufacturer’s protocol. Briefly, MCF-7 cells were seeded in 96-well plates, incubated for 24 hr and then treated with test compounds (7d, 7h, 7i, 7q, 7r, 7u, 7t, 10d, 10f, 12) as described in the cell viability assay above. After 72 h, 20 μL of ‘lysis solution (10X)’ was added to control wells and the plate was incubated for a further 1 hr to ensure 100% death. 50 μL of supernatant was carefully removed from each well and transferred to a new 96-well plate. 50 μL of reconstituted ‘substrate mix’ was added and the plate was placed in the dark at room temperature for 30 min. After this period, 50 μL of ‘stop solution’ was added to each well and the absorbance was read at a wavelength of 490 nm using a Dynatech MR5000 plate reader. The percentage cell death at 10 μM was calculated.

purified bovine tubulin = biological target: T1, purified bovine tubulin (Bos taurus, UniProt P81947+Q6B856); experiment: Tubulin polymerization assay; format: biochemical; conditions: for vmax of tubulin polymerization: absorbance at 340 nm, 37 °C
T1 construct: Purified (>99%) bovine brain tubulin (3 mg/mL); purchased Cytoskeleton Inc. BK006; host or cells: bovine brain (tissue-purified)
Experimental: The assembly of purified bovine tubulin was monitored using a kit, BK006, purchased from Cytoskeleton Inc., 1830 S Acoma St, Denver, CO, 80223, USA.. The assay was carried out in accordance with the manufacturer’s instructions in the tubulin polymerisation assay kit manual using the standard assay conditions. The values reported represent the average values from two independent assays. Purified (>99%) bovine brain tubulin (3 mg/mL) in a buffer consisting of 80 mM PIPES (pH 6.9), 0.5 mM EGTA, 2 mM MgCl2, 1 mM GTP and 10% glycerol was incubated at 37 °C in the presence of either vehicle (2% (v/v) ddH2O) or compounds 7h, 7i, 7s, 7t (initially 10 µM in EtOH); CA-4 and Paclitaxel were used as controls. Light is scattered proportionally to the concentration of polymerised microtubules in the assay. Therefore, tubulin assembly was monitored turbidimetrically at 340 nm at 37 °C in a Spectramax 340 PC spectrophotometer (Molecular Devices, 3860 N 1st St, San Jose, CA, USA). The absorbance was measured at 30 s intervals for 60 min.

MCF-7 cells [2] = experiment: Annexin V/PI apoptotic assay; conditions: for apoptotic cells (annexin-V positive): MCF-7, 72 h
Experimental: Apoptotic cell death was detected by flow cytometry using Annexin V and propidium iodide (PI). […] Cells were then harvested and prepared for flow cytometric analysis. Cells were washed in 1X binding buffer (20X binding buffer: 0.1M HEPES, pH 7.4; 1.4 M NaCl; 25 mM CaCl2 diluted in dH2O) and incubated in the dark for 30 min on ice in Annexin V-containing binding buffer [1:100]. Cells were then washed once in binding buffer and then re-suspended in PI-containing binding buffer [1:1000]. […] Four populations are produced during the assay Annexin V and PI negative (Q4, healthy cells), Annexin V positive and PI negative (Q3, early apoptosis), Annexin V and PI positive (Q2, late apoptosis) and Annexin V negative and PI positive (Q1, necrosis). Paclitaxel was used as a positive control for cell death

HOP-62 = experiment: NCI60 screen (SRB), Non-Small Cell Lung Cancer; format: cell-based; conditions: Homo sapiens
NCI-H226 = experiment: NCI60 screen (SRB), Non-Small Cell Lung Cancer; format: cell-based; conditions: Homo sapiens
NCI-H552 = experiment: NCI60 screen (SRB), Non-Small Cell Lung Cancer; format: cell-based
HCT-116 = experiment: NCI60 screen (SRB), Colon Cancer; format: cell-based; conditions: Homo sapiens
SK-MEL-5 = experiment: NCI60 screen (SRB), Melanoma; format: cell-based; conditions: Homo sapiens
IGROV1 = experiment: NCI60 screen (SRB), Ovarian cancer; format: cell-based; conditions: Homo sapiens, IGROV-1
OVCAR-3 = experiment: NCI60 screen (SRB), Ovarian cancer; format: cell-based; conditions: Homo sapiens
OVCAR-5 = experiment: NCI60 screen (SRB), Ovarian cancer; format: cell-based; conditions: Homo sapiens
RXF 393 = experiment: NCI60 screen (SRB), Renal cancer; format: cell-based; conditions: Homo sapiens
SN12C = experiment: NCI60 screen (SRB), Renal cancer; format: cell-based; conditions: Homo sapiens
MDA-MB-468 = experiment: NCI60 screen (SRB), Breast cancer; format: cell-based; conditions: Homo sapiens
Plasma stability study = format: in vitro ADME, human; set-up: half-life: dose or concentration left out as unconfirmed; conditions: 37 °C; for remaining after 6 h: human plasma
Experimental: Analytical high-performance liquid chromatography (HPLC) stability studies were performed using a Symmetry® column (C18, 5 µm, 4.6 × 150 mm), a Waters 2487 Dual Wavelength Absorbance detector, a Waters 1525 binary HPLC pump and a Waters 717 plus Autosampler (Waters Corporation, 34 Maple St, Milford, MA, USA). Samples were detected at wavelength of 254 nm. All samples were analysed using acetonitrile (80%) and water (20%) as the mobile phase over 10 min and a flow rate of 1 mL/min. Stock solutions were prepared by dissolving 5 mg of compound 7s, 17b and 17c in 10 mL of mobile phase. Phosphate buffers at the desired pH values (4, 7.4 and 9) were prepared in accordance with the British Pharmacopoeia monograph 2015. 30 µL of stock solution was diluted with 1 mL of appropriate buffer, shaken and injected immediately. Samples were withdrawn and analysed at time intervals of t = 0 min, 5 min, 30 min, 60 min, 90 min, 120 min, 24 h and 48 h. Plasma stability studies: 360 µL stock solution of compounds 7s, 17b and 17c were transferred to buffered plasma (plasma: buffer = 1:9, 4 mL in total) at 37 °C in screw cap container. Immediately a 250 µL aliquot was withdrawn and added to the Eppendorf tube containing 500 µL ZnSO4.7H2O solution (2% w/v ZnSO4 solution in acetonitrile: water, 1:1). The samples were then centrifuged at 10,000 rpm for 3 min and filtered through a 0.2-micron filter and injected according to the HPLC conditions listed above. Further samples were taken in the same manner every 1 h thereafter up to 6 h. A final sample was taken after 24 h. Whole blood stability studies. A 360 µL aliquot of stock solution of compounds 17b and 17c in acetonitrile was added in whole blood (4 mL, treated with 2% sodium citrate) at 37 °C and 300 µL aliquots were withdrawn at approptiate intervals. Samples were transferred to 1.5 mL Eppenddorf tubes containing 1 mL of ZnSO4. 7H2O solution (2% w/v ZnSO4 solution in acetonitrile: water, 1:1), vortexed and then centrifuged for 5 min at 14,000 rpm. The sample filtered through a 0.2-micron filter and injected according to the HPLC conditions listed above.

[3] = Homo sapiens, MCF7, 72 h, read-out: Viable
[4] = 10 μM, with reference to ethanol control
[5] = human, buffered plasma (plasma:buffer 1:9), plasma, read-out: half-life (t½)
[6] = NCI60 Colon Cancer cell line HCT-116, read-out: GI50
[7] = NCI60 Melanoma cell line SK-MEL-5, read-out: GI50
[8] = NCI60 Ovarian cancer cell line IGROV1, read-out: GI50
[9] = NCI60 Ovarian cancer cell line OVCAR-3, read-out: GI50
[10] = NCI60 Ovarian cancer cell line OVCAR-5, read-out: GI50
[11] = NCI60 Renal cancer cell line RXF 393, read-out: GI50
[12] = NCI60 Renal cancer cell line SN12C, read-out: GI50
[13] = NCI60 Breast cancer cell line MDA-MB-468, read-out: GI50

T1 sequence (Q6B856 whole entry): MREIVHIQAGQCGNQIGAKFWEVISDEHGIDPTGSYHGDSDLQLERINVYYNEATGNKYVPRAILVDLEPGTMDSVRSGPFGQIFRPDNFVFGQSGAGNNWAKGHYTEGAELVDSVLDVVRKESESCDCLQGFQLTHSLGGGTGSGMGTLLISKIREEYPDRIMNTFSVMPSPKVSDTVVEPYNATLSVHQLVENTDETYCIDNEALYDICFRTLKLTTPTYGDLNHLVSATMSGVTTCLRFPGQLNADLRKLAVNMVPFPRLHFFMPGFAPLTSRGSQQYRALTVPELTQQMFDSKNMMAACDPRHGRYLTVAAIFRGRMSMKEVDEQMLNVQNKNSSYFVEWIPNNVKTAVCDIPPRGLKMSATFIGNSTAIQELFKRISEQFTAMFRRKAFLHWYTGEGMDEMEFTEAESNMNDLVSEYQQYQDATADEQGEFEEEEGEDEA
T1 sequence (P81947 whole entry): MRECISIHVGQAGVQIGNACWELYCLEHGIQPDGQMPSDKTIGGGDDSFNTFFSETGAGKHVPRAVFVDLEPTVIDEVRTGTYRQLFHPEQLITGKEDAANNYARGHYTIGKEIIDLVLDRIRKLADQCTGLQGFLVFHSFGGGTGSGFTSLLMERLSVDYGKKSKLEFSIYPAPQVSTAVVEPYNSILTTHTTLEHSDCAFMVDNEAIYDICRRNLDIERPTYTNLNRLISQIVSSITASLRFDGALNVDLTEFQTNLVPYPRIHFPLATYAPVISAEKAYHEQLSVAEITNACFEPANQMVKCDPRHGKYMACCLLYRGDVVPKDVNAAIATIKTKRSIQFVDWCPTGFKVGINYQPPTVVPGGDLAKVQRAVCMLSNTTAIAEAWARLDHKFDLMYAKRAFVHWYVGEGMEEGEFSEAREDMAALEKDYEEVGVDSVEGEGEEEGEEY

Row | SMILES | cytotoxicity at 10 µM (MCF-7 cells [1]) [%] | vmax of tubulin polymerization (purified bovine tubulin; 10 μM) [mOD/min] | fold reduction in vmax of tubulin polymerization (purified bovine tubulin; [4]) | GI50 (HOP-62) [nM] | GI50 (NCI-H226) [nM] | GI50 (NCI-H552) [nM] | GI50 (HCT-116; HCT-116) [nM] | GI50 (SK-MEL-5; SK-MEL-5) [nM] | GI50 (IGROV1) [nM] | GI50 (OVCAR-3; OVCAR-3) [nM] | GI50 (OVCAR-5; OVCAR-5) [nM] | GI50 (RXF 393; RXF 393) [nM] | GI50 (HCT-116; [6]) [nM] | GI50 (SK-MEL-5; [7]) [nM] | GI50 (IGROV1; [8]) [nM] | GI50 (OVCAR-3; [9]) [nM] | GI50 (OVCAR-5; [10]) [nM] | GI50 (RXF 393; [11]) [nM] | GI50 (SN12C; [12]) [nM] | GI50 (MDA-MB-468; [13]) [nM] | other results
1 | COc1ccc(/C=C\c2cc(OC)c(OC)c(OC)c2)cc1O [CA-4, Combretastatin A-4, reference compound] | 11.8 | – | – | – | – | – | – | – | – | – | – | – | – | – | – | – | – | – | – | – | fold reduction in vmax of tubulin polymerization (purified bovine tubulin): 5.28 fold; viability at 0.05 µM (MCF-7 cells [2]; [3]): 61.8%; apoptotic cells (annexin-V positive) (MCF-7 cells [2]; 50 nM): 34.6%
2 | C=CC1C(=O)N(c2cc(OC)c(OC)c(OC)c2)C1c1ccc(OC)cc1 (stereo not drawn) [Compound 7h, 4-(4-Methoxyphenyl)-1-(3,4,5-trimethoxyphenyl)-3-vinylazetidin-2-one] | 2.4 | 3.43 | 2.45 fold | 36.9 | 33.9 | 20.6 | 30.7 | 19.4 | 40.4 | 25.1 | 58.7 | 28.7 | – | – | – | – | – | – | – | – | GI50 (SN12C; SN12C): 55.2 nM; GI50 (MDA-MB-468; MDA-MB-468): 22.7 nM
3 | C=CC1C(=O)N(c2cc(OC)c(OC)c(OC)c2)C1c1ccc(OC)c(O)c1 (stereo not drawn) [Compound 7s, 4-[3-Hydroxy-4-methoxyphenyl]-1-(3,4,5-trimethoxyphenyl)-3-vinylazetidin-2-one] | 16.1 | – | 8.7 fold and 8.70 fold | – | – | – | – | – | – | – | – | – | < 10 | < 10 | < 10 | < 10 | 45.3 | 13.6 | < 10 | < 10 | fold reduction in vmax of tubulin polymerization (purified bovine tubulin; 1 μM): 2.61 fold; fold reduction in vmax of tubulin polymerization (purified bovine tubulin; 5 μM): 7.31 fold; IC50 (purified bovine tubulin; calculated from 1, 5 and 10 μM, read-out: IC50 for the inhibition of tubulin polymerization): 1370 nM; half-life at 41.3 µg/mL (Plasma stability study; [5]): > 24 h; viability at 0.01 µM (MCF-7 cells [2]; [3]): 82.8%; viability at 0.1 µM (MCF-7 cells [2]; [3]): 64.5%; apoptotic cells (annexin-V positive) (MCF-7 cells [2]; 10 nM): About 13.6%; apoptotic cells (annexin-V positive) (MCF-7 cells [2]; 100 nM): 31.9%
4 | C=CC1C(=O)N(c2cc(OC)c(OC)c(OC)c2)C1c1ccc(OC)c(N)c1 (stereo not drawn) [Compound 7t, 4-(3-Amino-4-methoxyphenyl)-1-(3,4,5-trimethoxyphenyl)-3-vinylazetidin-2-one] | 25 | 0.92 | 9.15 fold | 41.2 | 38.7 | < 10 | 27.6 | 14.6 | 49.6 | 18.1 | 44.6 | 36.6 | – | – | – | – | – | – | – | – | GI50 (MDA-MB-468; MDA-MB-468): < 10 nM
5 | C=CC1C(=O)N(c2cc(OC)c(OC)c(OC)c2)C1c1ccc(OC)c(OP(=O)(O)O)c1 (stereo not drawn) [Compound 17b, 2-Methoxy-5-(1-(3,4,5-trimethoxyphenyl)-4-oxo-3-vinylazetidin-2-yl)phenyl dihydrogen phosphate] | – | – | – | – | – | – | – | – | – | – | – | – | 43.9 | 31.2 | 66.9 | 49.7 | 3570 | 64.8 | 146 | 49.6 | remaining after 6 h (Plasma stability study): 94%; half-life (Plasma stability study; [5]): > 24 h
6 | CCC1C(=O)N(c2cc(OC)c(OC)c(OC)c2)C1c1ccc(OC)c(OP(=O)(O)O)c1 (stereo not drawn) [Compound 17c, 5-(3-Ethyl-1-(3,4,5-trimethoxyphenyl)-4-oxoazetidin-2-yl)-2-methoxyphenyl dihydrogen phosphate] | – | – | – | – | – | – | – | – | – | – | – | – | 35 | 19 | 37.6 | 36.8 | 444 | 36.9 | 54.8 | 27.6 | remaining after 6 h (Plasma stability study): 92%; half-life (Plasma stability study; [5]): > 24 h
